Data on seven compounds can be found in patent publication US11155520B2, “Picolinamides as fungicides” (Dow AgroSciences LLC, priority 2018, dated 2021).

Assay type in all cases: in vivo
For one test, the system named is Phakopsora pachyrhizi. Briefly: Fungicidal activity: Asian soybean rust (PHAKPA). The note with it: High volume, 25 ppm; for PHAKPA 1DP disease control: 1 Day Protectant; for PHAKPA 3DC disease control: 3 Day Curative. On the procedure:
Technical grades of materials were dissolved in acetone, which were then mixed with nine volumes of water containing 0.011% Tween 20. The fungicide solutions were applied onto soybean seedlings using an automated booth sprayer to run-off. All sprayed plants were allowed to air dry prior to further handling.
Soybean plants (variety Williams 82) were grown in soil-less Metro mix, with one plant per pot. Two week old seedlings were used for testing. Plants were inoculated either 3 days prior to or 1 day after fungicide treatments. Plants were incubated for 24 h in a dark dew room at 22° C. and 100% relative humidity then transferred to a growth room at 23° C. for disease to develop. Disease severity was assessed on the sprayed leaves.

For a further test, the system named is Alternaria solani. The experiment in a line: Fungicidal activity: tomato early blight (ALTESO). The note with it: 1DP test at 100 ppm. On the procedure:
Technical grades of materials were dissolved in acetone, which were then mixed with nine volumes of water containing 110 ppm Triton X-100. The fungicide solutions were applied onto wheat seedlings using an automated booth sprayer to run-off. All sprayed plants were allowed to air dry prior to further handling. All fungicides were evaluated using the aforementioned method for their activity vs. all target diseases, unless stated otherwise. Wheat leaf blotch and brown rust activity were also evaluated using track spray applications, in which case the fungicides were formulated as EC formulations, containing 0.1% Trycol 5941 in the spray solutions. Tomato plants (variety Outdoor Girl) were propagated in soil-less Metro mix, with each pot having one plant, and used when 12 to 14 days old. Test plants were inoculated with an aqueous spore suspension of Alternaria solani 24 hr after fungicide treatments. After inoculation the plants were kept in 100% relative humidity (one day in a dark dew chamber followed by two to three days in a lighted dew chamber at 20° C.) to permit spores to germinate and infect the leaf. The plants were then transferred to a growth room at 22° C. for disease to develop. Fungicide formulation, application and disease assessment on the sprayed leaves followed the procedures as described in the Example A.

The next test relates to Parastagonospora nodorum. Briefly: Fungicidal activity: wheat glume blotch (LEPTNO). The note with it: 1DP test at 100 ppm. Here is the method: Technical grades of materials were dissolved in acetone, which were then mixed with nine volumes of water containing 110 ppm Triton X-100. The fungicide solutions were applied onto wheat seedlings using an automated booth sprayer to run-off. All sprayed plants were allowed to air dry prior to further handling. All fungicides were evaluated using the aforementioned method for their activity vs. all target diseases, unless stated otherwise. Wheat leaf blotch and brown rust activity were also evaluated using track spray applications, in which case the fungicides were formulated as EC formulations, containing 0.1% Trycol 5941 in the spray solutions. Wheat plants (variety Yuma) were grown from seed in a greenhouse in 50% mineral soil/50% soil-less Metro mix until the first leaf was fully emerged, with 7-10 seedlings per pot. These plants were inoculated with an aqueous spore suspension of Parastagonospora nodorum 24 hr after fungicide treatments. After inoculation the plants were kept in 100% relative humidity (one day in a dark dew chamber followed by two days in a lighted dew chamber at 20° C.) to permit spores to germinate and infect the leaf. The plants were then transferred to a greenhouse set at 20° C. for disease to develop. Fungicide formulation, application and disease assessment followed the procedures as described in the Example A.

The test system of a further test is Rhyncosporium secalis. Briefly: Fungicidal activity: barley scald (RHYNSE). The note with it: 1DP test at 100 ppm. Here is the method: Technical grades of materials were dissolved in acetone, which were then mixed with nine volumes of water containing 110 ppm Triton X-100. The fungicide solutions were applied onto wheat seedlings using an automated booth sprayer to run-off. All sprayed plants were allowed to air dry prior to further handling. All fungicides were evaluated using the aforementioned method for their activity vs. all target diseases, unless stated otherwise. Wheat leaf blotch and brown rust activity were also evaluated using track spray applications, in which case the fungicides were formulated as EC formulations, containing 0.1% Trycol 5941 in the spray solutions. Barley seedlings (variety Harrington) were propagated in soil-less Metro mix, with each pot having 8 to 12 plants, and used in the test when first leaf was fully emerged. Test plants were inoculated by an aqueous spore suspension of Rhyncosporium secalis 24 hr after fungicide treatments. After inoculation the plants were kept in a dew room at 20° C. with 100% relative humidity for 48 hr. The plants were then transferred to a greenhouse set at 20° C. for disease to develop. Fungicide formulation, application and disease assessment on the sprayed leaves followed the procedures as described in the Example A.

Test [1] concerns Glomerella lagenarium; Anamorph: Colletotrichum lagenarium. The experiment in a line: Fungicidal activity: cucumber anthracnose (COLLLA). The note with it: 1DP test at 100 ppm. Here is the method: Technical grades of materials were dissolved in acetone, which were then mixed with nine volumes of water containing 110 ppm Triton X-100. The fungicide solutions were applied onto wheat seedlings using an automated booth sprayer to run-off. All sprayed plants were allowed to air dry prior to further handling. All fungicides were evaluated using the aforementioned method for their activity vs. all target diseases, unless stated otherwise. Wheat leaf blotch and brown rust activity were also evaluated using track spray applications, in which case the fungicides were formulated as EC formulations, containing 0.1% Trycol 5941 in the spray solutions. Cucumber seedlings (variety Bush Pickle) were propagated in soil-less Metro mix, with each pot having one plant, and used in the test when 12 to 14 days old. Test plants were inoculated with an aqueous spore suspension of Colletotrichum lagenarium 24 hr after fungicide treatments. After inoculation the plants were kept in a dew room at 22° C. with 100% relative humidity for 48 hr to permit spores to germinate and infect the leaf. The plants were then transferred to a growth room set at 22° C. for disease to develop. Fungicide formulation, application and disease assessment on the sprayed leaves followed the procedures as described in the Example A.

Another test relates to Uncinula necator. Briefly: Fungicidal activity: grape powdery mildew (UNCINE). The note with it: 1DP test at 100 ppm. Here is the method:
Technical grades of materials were dissolved in acetone, which were then mixed with nine volumes of water containing 110 ppm Triton X-100. The fungicide solutions were applied onto wheat seedlings using an automated booth sprayer to run-off. All sprayed plants were allowed to air dry prior to further handling. All fungicides were evaluated using the aforementioned method for their activity vs. all target diseases, unless stated otherwise. Wheat leaf blotch and brown rust activity were also evaluated using track spray applications, in which case the fungicides were formulated as EC formulations, containing 0.1% Trycol 5941 in the spray solutions. Grape seedlings (variety Carignane) were grown in soil-less Metro mix, with one plant per pot, and used in the test when approximately 1 month old. Plants were inoculated 24 hr after fungicide treatment by shaking spores from infected leaves over test plants. Plants were maintained in a greenhouse set at 20° C. until disease was fully developed. Fungicide formulation, application and disease assessment on sprayed leaves followed the procedures as described in the Example A.

Test [2] relates to Magnaporthe grisea; Anamorph: Pyricularia oryzae. The note with it: 1DP test at 100 ppm, rice.
The subject of test [3] is Pseudoperonospora cubensis. The experiment in a line: Fungicidal activity: cucumber downy mildew (PSPECU). The note with it: 1DP test at 100 ppm. Here is the method: Technical grades of materials were dissolved in acetone, which were then mixed with nine volumes of water containing 110 ppm Triton X-100. The fungicide solutions were applied onto wheat seedlings using an automated booth sprayer to run-off. All sprayed plants were allowed to air dry prior to further handling. All fungicides were evaluated using the aforementioned method for their activity vs. all target diseases, unless stated otherwise. Wheat leaf blotch and brown rust activity were also evaluated using track spray applications, in which case the fungicides were formulated as EC formulations, containing 0.1% Trycol 5941 in the spray solutions. Cucumber seedlings (variety Bush Pickle) were grown in soil-less Metro mix, with one plant per pot, and used in the test when 12 to 14 days old. Plants were inoculated with a spore suspension 24 hr following fungicide treatments. Test plants were inoculated with an aqueous spore suspension of Pseudoperonospora cubensis 24 hr after fungicide treatments. After inoculation the plants were kept in a dew room at 22° C. with 100% relative humidity for 24 hr to permit spores to germinate and infect the leaf. The plants were then transferred to a greenhouse set at 20° C. until disease was fully expressed. Fungicide formulation, application and disease assessment on the sprayed leaves followed the procedures as described in the Example A.

The test system of another test is Cercospora beticola. The experiment in a line: Fungicidal activity: leaf spot of sugar beets (CERCBE). The note with it: 1DP test at 100 ppm, sugar beet. Here is the method: Technical grades of materials were dissolved in acetone, which were then mixed with nine volumes of water containing 110 ppm Triton X-100. The fungicide solutions were applied onto wheat seedlings using an automated booth sprayer to run-off. All sprayed plants were allowed to air dry prior to further handling. All fungicides were evaluated using the aforementioned method for their activity vs. all target diseases, unless stated otherwise. Wheat leaf blotch and brown rust activity were also evaluated using track spray applications, in which case the fungicides were formulated as EC formulations, containing 0.1% Trycol 5941 in the spray solutions. Sugar beet plants (variety HH88) were grown in soil-less Metro mix and trimmed regularly to maintain a uniform plant size prior to test. Plants were inoculated with a spore suspension 24 hr after fungicide treatments. Inoculated plants were kept in a dew chamber at 22° C. for 48 hr then incubated in a greenhouse set at 24° C. under a clear plastic hood with bottom ventilation until disease symptoms were fully expressed. Fungicide formulation, application and disease assessment on the sprayed leaves followed the procedures as described in the Example A.

Take `COc1ccnc(C(=O)NCC(=O)O[C@@H](C)[C@H](C)c2ccc(F)cc2C)c1OC(=O)C(C)C` [Example 197]: in the test on Phakopsora pachyrhizi, the “PHAKPA 1DP disease control” value is listed as “D (≤0)” and the “PHAKPA 3DC disease control” value is recorded as “D (≤0)”.

As for `COc1ccnc(C(=O)N[C@H](C(=O)O[C@@H](C)[C@H](C)c2ccc(F)cc2C)C(C)C)c1OC(=O)C(C)C` [Example 210], the “PHAKPA 3DC disease control” value in the test on Phakopsora pachyrhizi is recorded as “D (≤0)”.

Take `COc1ccnc(C(=O)N[C@H](C(=O)O[C@H](C)[C@H](C)c2ccc(F)cc2C)C(C)C)c1OC(=O)C(C)C` [Example 214]: the “PHAKPA 1DP disease control” value in the test with Phakopsora pachyrhizi is on record as “B (≤80)”.

Turning to `COc1ccnc(C(=O)N[C@@H](C)C(=O)O[C@H](C)[C@@H](C)c2ccccc2C)c1OC(=O)C(C)C` [Example 225], the “PHAKPA 1DP disease control” value with Phakopsora pachyrhizi is listed as “D (≤0)”.

In the case of `COc1ccnc(C(=O)N[C@@H](C)C(=O)O[C@H](C)[C@H](C)c2ccccc2C)c1OC(C)=O` [Example 263], the ALTESO disease control entry with Alternaria solani is recorded as “B (≤80)”. For the same compound, the LEPTNO disease control result in the test with Parastagonospora nodorum is reported as “B (≤80)”. The RHYNSE disease control entry in the test with Rhyncosporium secalis is reported as “B (≤80)”. The COLLLA disease control result in [1] is reported as “D (≤0)”. Moreover, the UNCINE disease control result in the test on Uncinula necator is on record as “A (>80)”. Further, the PYRIOR disease control entry in test [2] is on record as “B (≤80)”. Also, the PSPECU disease control result in test [3] is reported as “B (≤80)”. The CERCBE disease control entry in the test with Cercospora beticola is given as “B (≤80)”.

Turning to `COc1ccnc(C(=O)N[C@@H](C)C(=O)O[C@@H](C)[C@@H](C)c2ccccc2C)c1OC(C)=O` [Example 264], the ALTESO disease control entry with Alternaria solani is recorded as “B (≤80)”. For the same compound, the LEPTNO disease control result with Parastagonospora nodorum is given as “A (>80)”. In the test with Rhyncosporium secalis, the RHYNSE disease control entry is listed as “B (≤80)”. Moreover, the COLLLA disease control result in [1] is given as “B (≤80)”. The UNCINE disease control result in the test with Uncinula necator is “A (>80)”. The PYRIOR disease control entry in test [2] is listed as “A (>80)”. The PSPECU disease control result in test [3] is on record as “B (≤80)”. In addition, in the test with Cercospora beticola, the CERCBE disease control entry is listed as “A (>80)”.

For the compound `COc1ccnc(C(=O)N[C@@H](C)C(=O)O[C@@H](C)[C@@H](C)c2ccccc2C)c1OC(=O)C(C)C` [Example 266], the ALTESO disease control result with Alternaria solani is given as “B (≤80)”. The LEPTNO disease control entry in the test on Parastagonospora nodorum is on record as “A (>80)”. In addition, the RHYNSE disease control entry with Rhyncosporium secalis is recorded as “B (≤80)”. In addition, the COLLLA disease control result in test [1] is “D (≤0)”. For the same compound, the UNCINE disease control entry in the test on Uncinula necator is reported as “A (>80)”. In addition, the PYRIOR disease control entry in test [2] was “A (>80)”. In [3], the PSPECU disease control result was “D (≤0)”. The CERCBE disease control result with Cercospora beticola is “B (≤80)”.
